According to patent US20040009967A1, “Pyridyl alkene- and pyridyl alkine- acid amides as cytostatics and immuno-suppressives” (Klinge Pharma GmbH, priority 1996, published 2004):
Like-named read-outs stand apart in the source and are kept apart here.

Assays:
HepG2 cells = assay: Growth inhibition of HepG2 cells, six days of incubation, sulforhodamin-B-method; format: cell-based, human; details: six days of substance incubation, read-out: IC50-value (concentration in which the cell growth was inhibited by 50%)
Procedure: HepG2 cells plated at a density of 20,000 cells/ml in 12-well plastic dishes. Cultivation occured in Richters IMEM-ZO nutrient medium with 5% fetal calf serum (FCS) in a tissue culture incubator with a gas mixture of 5% CO2 and 95% air at a temperature of 37° C. One day after plating, the culture medium was aspirated from the cells and replaced by fresh medium which contained the respective concentrations of the test substances. For the individual concentrations and the controls without test substances, three-fold batches were done for each. Three days after the beginning of treatment, the medium was again renewed with the test compounds. After six days of substance incubation, the test was ended and the protein amount in the individual wells was determined with the sulforhodamin-B-method (according to P. Skehan et al.: New Colorimetric Cytotoxity Assay for Anticancer-Drug Screening. J. Natl. Cancer Inst. 82: 1107-1112, 1990). The IC50-values (defined as that concentration in which the cell growth was inhibited by 50%) was taken from the dose-response curves and given as a comparative measurement for the activity of the test compounds.

[1] = tested on: lymphocytes from the spleen of a Swiss mouse; assay: Immunosuppressing activity: vitality of freshly isolated spleen lymphocytes, flow-through cytometer; format: cell-based; details: 2 days incubation, read-out: IC50 (percentage amount of vital cells)
Excerpt: Many anti-tumor agents have not only a cytotoxic effect on tumor cells, but also on the blood cell system. This leads to a weakening of the immune defence, which can, in turn, be specifically employed to suppress the rejection reaction after an organ transplantation for example. Therefore, a use of the main compounds, optionally in combination with other compounds effective for these indications is suitable in diseases such as psoriasis or autoimmune diseases. In order to test the possibility for a therapeutic use in illnesses of this type, the substance activity was tested on freshly isolated lymphocytes as follows:
The spleen of a Swiss mouse served as a lymphocyte source. The lymphocyte population was isolated from the spleen cell suspension over a ficoll gradient and taken up in IMEM-ZO culture medium with 0,1% dextran 70,000 and 2% fetal calf serum. The cells were plated at a density of ca. 500,000 cells/well/ml in a 12-well plate, 1 ml doubly concentrated test substance solution was pipetted per well and this was subsequently incubated in a tissue culture incubator at 37° C. and 5% CO2. After 2 days, a 1 ml-aliquot with 5 μl of the fluorescent dye solutions propidium iodide (8 mg/ml) and 3,3′-dihexyloxacarbocyanin iodide (40 μg/ml) each was added per well, and incubated for 3 minutes at room temperature. Subsequently, 10,000 cells per each sample were measured on a flow-through cytometer and the percentage amount of vital cells in the population was determined. By means of the dose-response curves, IC50-values were calculated which were also employed in the following Tables for the characterization of the individual substances: […]

IC50 (HepG2 cells; Homo sapiens, 144 h) [pM] | melting point [°C] | IC50 ([1]; Lymphocyte, 48 h) [pM] | SMILES | also measured
2000 | 89 to 91 |  | O=C(C=Cc1cccnc1)NCCCCC1CCN(C2c3ccccc3CSc3ccccc32)CC1 (stereo not drawn) [Substance 136, N-{4-[1-(6,11-dihydro-dibenzo[b,e]thiepin-11-yl)-piperidin-4-yl]-butyl}-3-(pyridin-3-yl)-acrylamide] | 
700 |  |  | O=C(C=Cc1cccnc1)NCCCCC1CCN(C(=O)c2cccc3c2-c2ccccc2C3=O)CC1 [Substance 178, N-{4-[1-(9-oxo-9H-fluoren-4-yl-carbonyl)-piperidin-4-yl]-butyl}-3-(pyridin-3-yl)-acrylamide] | 
 |  |  | O=C(C=Cc1cccnc1)NCCCCC1CCN(C(=O)c2ccccc2)CC1 [Substance 159, N[4-(1-benzoylpiperidin-4-yl)-butyl]-3-(pyridin-3-yl)-acrylamide] | IC50 (HepG2 cells): 500 pM; IC50 [1]: 3000 pM
 | 85 to 87 |  | O=C(C=Cc1cccnc1)NCCCCC1CCN(S(=O)(=O)c2ccc3ccccc3c2)CC1 [Substance 219, N-{4-[1-(2-naphthyl-sulfonyl)-piperidin-4-yl]-butyl}-3-(pyridin-3-yl)-acrylamide] | 
1000 |  | 40 | O=C(C=Cc1cccnc1)NCCCCC1CCN(C(=O)N(c2ccccc2)c2ccccc2)CC1 [Substance 199, N-{4-[1-(diphenylaminocarbonyl)-piperidin-4-yl]-butyl}-3-(pyridin-3-yl)-acrylamide] | 
 | 161 | 200 | O=C(C=Cc1cccnc1)NCCCCC1CCN(C(=O)C(c2ccccc2)c2ccccc2)CC1 [Substance 150, N-[4-(1-diphenylacetyl-piperidin-4-yl)-butyl]-3-(pyridin-3-yl)-acrylamide] | 
 | 198 to 200 | 2000 | O=C(C=Cc1cccnc1)NCCCCC1CCN(C(=O)Nc2cccc3ccccc23)CC1 [Substance 195, N-{4-[1-(1-naphthylaminocarbonyl)-piperidin-4-yl]-butyl}-3-(pyridin-3-yl)-acrylamide] | 
